Holding throughout (test): NCI tumour cell line growth inhibition, 48 h
The test system of experiment [1] is TK-10 renal.
The test system of experiment [2] is ACHN renal.
Experiment [3] concerns OVCAR-3 ovarian.
Experiment [4] deals with SK-MEL-2 melanoma.
The subject of experiment [5] is HOP-62 NSCLC.
Experiment [6] has as its system K-562 leukemia.
Experiment [7] relates to NCI-H23 lung.
The test system of experiment [8] is SN12C renal.
For experiment [9], the system named is A549 NSCLC.
In experiment [10] the test system is UACC-257 melanoma.
The subject of experiment [11] is RPMI-8226 leukemia.
Experiment [12] deals with NCI-H226 lung.
Experiment [13] relates to M14 melanoma.
In experiment [14] the test system is RXF 393 renal.
Experiment [15] deals with SNB-75 CNS.
In experiment [16] the test system is SNB-78 CNS.
Experiment [17] concerns SW-620 colon.
Experiment [18] has as its system SF-539 CNS.
The test system of experiment [19] is A498 renal.
Experiment [20] concerns MCF7 breast.

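A five-concentration, 48-hour dose response in 96-well plates underlies each endpoint, interpolated linearly between surrounding concentrations. TGI marks complete inhibition of growth.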

`CCOC(=O)C1C(c2ccc([N+](=O)[O-])cc2)NC(c2ccc([N+](=O)[O-])cc2)C(C(=O)OC)S1(=O)=O` (stereo not drawn): the TGI in experiment [1], in experiment [2], in experiment [3], in [4], in [5] and in [6] was above 100 µM each time. Moreover, the TGI in experiment [7], in [8], in [9], in experiment [10], in experiment [11] and in [12] was above 100 µM each time. Also, the TGI in [13], in experiment [14], in experiment [15], in [16] and in experiment [17] was above 100 µM in each case.
`Nc1ccc(C(=O)NN2C(=O)C(Cl)C2c2ccccc2O)cc1` (stereo not drawn): the TGI in experiment [1], in [2], in experiment [3], in experiment [4], in experiment [5] and in experiment [6] was above 100 µM in each case. Also, the TGI in experiment [7], in experiment [8], in experiment [9], in [10], in experiment [11] and in [12] was above 100 µM in each case. Further, the TGI in experiment [13], in experiment [15], in experiment [18], in experiment [16] and in [17] was above 100 µM in each case.
As to `COC(=O)C(Cc1c[nH]c2ccccc12)NP(=O)(O)OCC1OC(n2cc(F)c(=O)[nH]c2=O)CC1O` (stereo not drawn), the TGI in [1], in experiment [19], in experiment [2], in experiment [3], in experiment [4] and in [5] was above 100 µM throughout. Also, the TGI in experiment [20], in experiment [6], in experiment [7], in [8], in experiment [9] and in [10] was above 100 µM in each case. Besides, the TGI in [11], in experiment [12], in experiment [13], in experiment [14], in [15] and in [18] was above 100 µM throughout. Moreover, the TGI in [17] is above 100 µM.
With `CC(Oc1ccc(Cl)cc1Cl)C(=O)NN1C(=O)CSC1c1ccc(Cl)cc1` (stereo not drawn), the TGI is above 100 µM in experiment [1]; 80 µM in [19]; above 100 µM in experiment [2]; above 100 µM in experiment [3]; above 100 µM in experiment [4]; above 100 µM in [5]. Besides, the TGI in experiment [20] was above 100 µM; in [6], above 100 µM; in [7], above 100 µM; in experiment [8] it was 37.8 µM; in experiment [9], above 100 µM; in [10], above 100 µM. Further, the TGI is above 100 µM in experiment [11]; 39.2 µM in experiment [12]; above 100 µM in experiment [13]; 83.4 µM in [14]; 72.7 µM in [15]; 43.9 µM in experiment [18]. For the same compound, the TGI in [17] was above 100 µM.
Consider `COc1ccc(NC(C)=O)cc1N1C(=O)/C(=C\c2cc(OC)c(OC)c(OC)c2)S(=O)(=O)C1c1ccccc1` (stereo not drawn), for which the TGI in experiment [1], in [19], in experiment [2], in [3], in experiment [4] and in experiment [5] was above 100 µM each time. Moreover, the TGI in experiment [20], in experiment [6], in [7], in experiment [8], in [9] and in experiment [10] was above 100 µM in each case. Moreover, the TGI in [11], in [12], in experiment [13], in experiment [14], in [15] and in experiment [18] was above 100 µM in each case. This compound also showed a TGI in [17] above 100 µM.
Regarding `CC(=C(C(=O)O)C(=O)O)c1cc(-c2cccs2)cc(-c2ccc(Cl)cc2)c1O`, the TGI in experiment [1] is 31.9 µM; in experiment [19] it was 30.8 µM; in experiment [2], 29.4 µM; in experiment [3], 33.6 µM; in experiment [4], above 88.6 µM; in experiment [5], 60.4 µM. Moreover, the TGI in experiment [20] was 17.9 µM; in experiment [6] it was above 53.6 µM; in experiment [7], 32.6 µM; in experiment [8], 30.5 µM; in [9] it was above 80.8 µM; in [10], 33.5 µM. Besides, the TGI was 15.6 µM in experiment [11]; above 72.2 µM in [12]; 32.7 µM in experiment [13]; 29.6 µM in [14]; 37.6 µM in experiment [15]; 29.8 µM in experiment [18]. In addition, in [17], the TGI is 43.6 µM.
On to `CCn1c(SCC(=O)NNC(=S)Nc2ccc(F)cc2)nc2ccccc2c1=O`, for which the TGI in experiment [1], in [19], in experiment [2], in experiment [3], in experiment [4] and in [5] was above 100 µM each time. Moreover, the TGI in experiment [20], in [6], in experiment [7], in [8], in [9] and in [10] was above 100 µM throughout. The TGI in [11], in experiment [12], in experiment [13], in experiment [14], in experiment [15] and in experiment [18] was above 100 µM throughout. In addition, in [17], the TGI is above 100 µM.
Regarding `COC(=O)N/N=C(\C)C(CN1CCOCC1)C(c1ccccc1)c1cc2ccccc2oc1=O` (stereo not drawn), the TGI in [1], in experiment [19], in experiment [2], in experiment [3], in [4] and in experiment [5] was above 100 µM each time. Also, the TGI in [20], in experiment [6], in experiment [7], in experiment [8], in experiment [9] and in [10] was above 100 µM in each case. In addition, the TGI was 53.4 µM in [11]; above 100 µM in experiment [12]; above 100 µM in experiment [13]; above 100 µM in [14]; above 100 µM in [15]; above 100 µM in [18]. The compound also had a TGI in experiment [17] above 100 µM.

These data come from PubChem BioAssay (NCI).
